Patent US20060128667A1, “Hydroxyphosphonates and phosphonophosphates as apolipoprotein e modulators” (priority 2002, published 2006)
Where two headings read alike, the source gives them in different places.

Tested on: apoE secretion by THP-1 cell line
Type: cell-based, human
Conditions: THP-1 cells, 3 days
Excerpt: The hydroxyphosphonates (Ia) and phosphonophosphates (Ib) of the invention can modulate (increase or decrease) the apoE production in plasma and in tissues. The activities of the compounds can be determined in an in vitro cell assay consisting in determining the effect of the test compound in modulating the secretion of apoE by an apoE secreting cell line (e.g., a monocyte-macrophage cell line such as the THP-1 cell line; a liver derived cell line such as the HepG2 cell line, an intestinal derived cell line such as the CaCo2 cell line or a brain derived cell line such as the astrocytoma CCF-STTG1 cell line).
THP-1 cell line (ATCC TIB-202) are cultured in RPMI 1640 (with 2 mM of L-glutamine and 2 g/l of glucose, Invitrogen) supplemented with 2 g/l of sodium hydrogen carbonate (Fluka), 10 U/ml of penicillin, 10 μg/ml of streptomycin (Penicillin-Streptomycin, Invitrogen), 20 μM of 2-mercaptoethanol (Fluka) and 10% FCS (Amimed). Cells are incubated at 37° C. and 5% CO2.
Cells are seeded in 24 well tissue culture plates (Falcon), 2×10^5 cells in 500 μl of culture medium per well or 6 well plates for RT-PCR purpose, 1×10^6 cells in 2.5 ml of medium. PMA (Phorbol 12-myristate 13-acetate, Alexis), (stock in DMSO (Fluka) at 1 mg/ml) and other compounds are diluted in ethanol and added to the cells at an ethanol final concentration not exceeding 1%. Same volume of ethanol is added in controls. Plates are incubated for 3 days at 37° C. and 5% CO2 to allow cell differentiation and apoE secretion.
Medium contained in the wells is harvested and centrifuged 5 min at 1200 rpm. Supernatants are store at −20° C. until apoE quantification. The cell pellets are resuspended in PBS and counted with a Z1 Coulter Counter. After a wash with PBS, adherent cells in the well bottoms are detached with trypsin-EDTA solution 10× (Invitrogen) diluted in PBS. The reaction is stopped with the addition of culture medium and the detached cells are counted.
ApoE was quantified by ELISA. 96 well plates (Costar) are coated with 5% of gelatine (from porcine skin, Fluka) in carbonate-bicarbonate buffer (Sigma) for 1 hour at 37° C. After removing the coating solution, 100 μl of THP-1 supernatant are added per well, diluted 5 times in buffer (PBS, 1% Top-Block (Juro), 0.1% Tween 20 (Fluka)). The incubation last 1 hour at 37° C., then the wells are washed 3 times with 200 μl of buffer. Plates are incubated for 1 hour at 37° C. with continuous stirring with the primary antibody (goat anti-human apoE IgG, Calbiochem) at a 10000-time dilution in buffer, 100 μl per well. After 3 washes, plates are incubated with the secondary antibody (rabbit anti-goat-IgG peroxidase conjugated, Sigma) diluted 5000 times, 100 μl per well, at 37° C. with shaking. Then the wells are washed 5 more times and the detection is achieved by adding 100 μl per well of o-phenylenediamine dihydrochloride (Sigma) and incubated for 15-20 minutes with shaking at room temperature. When the appropriated colour is reached, the reaction is stopped by adding 50 μl per well of 3 M sulfuric acid (Fluka) with shaking for 1 minute at room temperature. The absorbance is read at 492 nm versus 620 nm with a microplate photometer (Anthos Reader 2001).

Row | Structure (SMILES) | % ApoE Change (compound 25 μM, 1.25 nM PMA) [%] | % ApoE Change (compound 25 μM, 2.5 nM PMA) [%] | % ApoE Change (compound 50 μM, 1.25 nM PMA) [%] | % ApoE Change (compound 50 μM, 2.5 nM PMA) [%] | % ApoE Change (compound 100 μM, 1.25 nM PMA) [%] | % ApoE Change (compound 100 μM, 2.5 nM PMA) [%]
1 | CCOP(=O)(OCC)OC(c1cccc(OCCCCCN2C(=O)c3ccccc3C2=O)c1)P(=O)(OCC)OCC (stereo not drawn) [Diethyl 1-(diethoxy-phosphinyloxy)-1-[3-(5-N-phthalimido-pentoxy)-phenyl]-methylphosphonate] | 3375 | 1196 | 1526 | 310 | −93 | −92
2 | CCOP(=O)(OCC)OC(c1cc(OC)c2c(c1)OCO2)P(=O)(OCC)OCC (stereo not drawn) [Diethyl 1-(diethoxy-phosphinyloxy)-1-[4-(3-methoxy-4,5-methylenedioxy)-phenyl]-methylphosphonate] | −19 | 7 | 3 | −5 | 33 | 40
3 | CCOP(=O)(OCC)OC(c1cccc(OCc2cccnc2)c1)P(=O)(OCC)OCC (stereo not drawn) [Dietbyl 1-(diethoxy-phosphinyloxy)-1-[3-(pyridin-3-yl-methoxy)-phenyl]-methylphosphonate] | 52 | 15 | 551 | 6 | 1351 | 98
4 | CCOP(=O)(OCC)C(O)c1ccc(OCCCN2C(=O)c3ccccc3C2=O)cc1 (stereo not drawn) [Diethyl 1-hydroxy-1-{4-[3-N-phthalimido-propoxy]-phenyl}-methylphosphonate] | 543 | 304 | 961 | 396 | 1436 | 465
5 | CCOP(=O)(OCC)C(O)c1ccc(OCc2ccccn2)cc1 (stereo not drawn) [Diethyl 1-hydroxy-1-[4-(pyridin-2-yl-methoxy)-phenyl]-methlyphosphonate] | −9 | 0 | 24 | 3 | 76 | 100
6 | CCOP(=O)(OCC)OC(c1ccc(-c2ccccc2)cc1)P(=O)(OCC)OCC (stereo not drawn) [Diethyl 1-(diethoxy-phosphinyloxy)-1-(biphenyl-4-yl)-methyiphosphonate] | 172 | 138 | 198 | 119 | 142 | 71
7 | CCOP(=O)(OCC)OC(c1ccc(OCc2cccnc2)cc1)P(=O)(OCC)OCC (stereo not drawn) [Diethyl 1-(diethoxy-phosphinyloxy)-1-[4-(pyridin-3-yl-methoxy)-pheny]-methylphosphonate] | 95 | 179 | 189 | 245 | 535 | 434
